# From paper PMC7570662, “In Vivo Pharmacokinetic Analysis Utilizing Non-Targeted and Targeted Mass Spectrometry and In Vitro Assay against Transient Receptor Potential Channels of Maobushisaishinto and Its Constituent Asiasari Radix” (Molecules, 2020)
# Assays:
# human TRPA1 = molecular target: T1, human TRPA1 (Homo sapiens, UniProt O75762); test: Ca2+ influx assay in TRPA1-expressing T-REx-293 cells; format: cell-based; conditions: 10 µmol/L test compound, relative to 20 µmol/L allyl isothiocyanate; for activation at 10 µM: T-REx-293, read-out: % of Activation Compared to Positive Control against Each Subfamily of TRP Channel TRPA1
# T1 construct: Each full-length human TRPA1, TRPV1, TRPV4, and TRPM8 coding regions were introduced into a pcDNA4/TO vector; expressed in transfected cells; host or cells: T-REx-293 cells (tetracycline-induced, pcDNA4/TO vector)
# Experimental: (§1) Each full-length human TRPA1, TRPV1, TRPV4, and TRPM8 coding regions were introduced into a pcDNA4/TO vector (Thermo Fisher Scientific, Waltham, MA, USA) and transfected into T-REx-293 cells (Thermo Fisher Scientific) to obtain stable cell lines expressing human TRPA1, TRPV1, TRPV4, and TRPM8. Cells were cultured in DMEM with 10% FBS, 4 mmol/L L-glutamine, and penicillin/streptomycin.
# (§2) Cells were suspended in medium with 1 µg/mL tetracycline and seeded in poly-D-lysine coated 96-well plate at 2.5 × 10^4 cells/well. After overnight culture, the cells were used for Ca^2+ influx assay.
# (§3) The Ca^2+ influx assay was performed using a FLIPR Calcium 5 Assay Kit (Molecular Devices, Sunnyvale, CA, USA) according to previously reported methods with minor modifications. In brief, cells were incubated with 80 µL Ca^2+-chelating dye dissolved in assay buffer at pH 7.4 (Hanks’ Balanced Salt Solution containing 20 mmol/L of N-2-hydroxyethylpiperazine-N’-2-ethanesulfonic acid) at room temperature for 30 min. The plates were assayed using a FlexStation 3 Microplate Reader (Molecular Devices). The fluorescence intensity was traced entirely for 80 s. The baseline of fluorescence was measured for 20 s before adding 20 µL of test compound (final concentration, 10 µmol/L). The response was expressed as percentage activation using the relative fluorescence units (RFU) (% activation = 100 × ((RFUmax − RFUbaseline)/RFUbaseline) − 100). Furthermore, the activities of each test compound against several subfamilies of TRP channels were represented as the relative enhancement of Ca^2+ influx of each positive control, indicated as follows: 20 µmol/L of allyl isothiocyanate (an agonist of TRPA1), 2 µmol/L of capsaicin (an agonist of TRPV1), 4 µmol/L of GSK1016790A (an agonist of TRPV4), and 20 µmol/L of icilin (an agonist of TRPM8). The dose–response curve was fitted to the sigmoidal dose-response equation (top, the max response of each compound), and EC50 values were calculated using GraphPad Prism 7 software (GraphPad, San Diego, CA, USA).
# human TRPV1 = molecular target: T2, human TRPV1 (Homo sapiens, UniProt Q8NER1); test: Ca2+ influx assay in TRPV1-expressing T-REx-293 cells; format: cell-based; conditions: 10 µmol/L test compound, relative to 2 µmol/L capsaicin; for activation at 10 µM: T-REx-293, read-out: % of Activation Compared to Positive Control against Each Subfamily of TRP Channel TRPV1
# T2 construct: Each full-length human TRPA1, TRPV1, TRPV4, and TRPM8 coding regions were introduced into a pcDNA4/TO vector; expressed in transfected cells; host or cells: T-REx-293 cells (tetracycline-induced, pcDNA4/TO vector)
# Experimental: as §1, §2, §3
# human TRPV4 = molecular target: T3, human TRPV4 (Homo sapiens, UniProt Q9HBA0); test: Ca2+ influx assay in TRPV4-expressing T-REx-293 cells; format: cell-based; conditions: 10 µmol/L test compound, relative to 4 µmol/L GSK1016790A; for activation at 10 µM: T-REx-293, read-out: % of Activation Compared to Positive Control against Each Subfamily of TRP Channel TRPV4
# T3 construct: Each full-length human TRPA1, TRPV1, TRPV4, and TRPM8 coding regions were introduced into a pcDNA4/TO vector; expressed in transfected cells; host or cells: T-REx-293 cells (tetracycline-induced, pcDNA4/TO vector)
# Experimental: as §1, §2, §3
# human TRPM8 = molecular target: T4, human TRPM8 (Homo sapiens, UniProt Q7Z2W7); test: Ca2+ influx assay in TRPM8-expressing T-REx-293 cells; format: cell-based; conditions: 10 µmol/L test compound, relative to 20 µmol/L icilin; for activation at 10 µM: T-REx-293, read-out: % of Activation Compared to Positive Control against Each Subfamily of TRP Channel TRPM8
# T4 construct: Each full-length human TRPA1, TRPV1, TRPV4, and TRPM8 coding regions were introduced into a pcDNA4/TO vector; expressed in transfected cells; host or cells: T-REx-293 cells (tetracycline-induced, pcDNA4/TO vector)
# Experimental: as §1, §2, §3
# [1] = Qualitative non-targeted LC-HRMS analysis of AR compounds in rat plasma after oral AR or MBST; format: in vivo; conditions: rat, in vivo, po
# Experimental: Extract powders of AR or MBST were suspended in distilled water and orally administered to rats having fasted for approximately 16 h. The dose of AR was set at 2 g/kg, and the MBST doses were set at 1 and 2 g/kg. 1 g/kg MBST contained 578 µg/kg, 147 µg/kg, 226 µg/kg, 426 µg/kg asarinin, sesamin, methyl kakuol, and amide A, respectively. The doses were chosen based on a previous pharmacological study of MBST using rats.
# According to previous pharmacokinetic studies of herbal medicines, many of the components were quickly absorbed into the bloodstream, thereby providing the rationale for a sampling time at 1 h. Blood was centrifuged at 1200× g at 4 °C for 30 min to obtain plasma; then, the sample was stored at −80 °C until LC-HRMS analysis. […]
# The plasma samples were collected at 1 h after MBST administration in case of both the qualitative (non-targeted) analysis and the quantitative (targeted) analysis.
# The plasma samples of AR- or MBST-treated rats collected at 1 h post-administration were pretreated by deproteinization using methanol before the LC-HRMS analysis as follows: 100 µL plasma sample was mixed with 500 µL methanol, and the resultant solution was vortexed for 2 min. The mixture was centrifuged at 7000× g at 4 °C for 5 min. The supernatant was dried using a centrifugal evaporator, and the dried residue was dissolved in 100 μL of the initial LC mobile phase which is composed of 0.1 vol% formic acid in water/acetonitrile (99.9/0.1, v/v) and recentrifuged at 7000× g at 4 °C for 5 min. Finally, a 5 μL aliquot of the supernatant was injected into the LC-HRMS system comprised of an Acquity Ultra-Performance Liquid Chromatography System (Waters, Milford, MA, USA) and a Xevo G2-XS quadrupole time-of-flight MS (Waters) and was chromatographically separated using an ACQUITY UPLC HSS T3 column (2.1 × 150 mm I.D., 1.8-μm particle size; Waters) with an ACQUITY UPLC HSS T3 VanGuard Pre-column (2.1 mm × 5 mm I.D., 1.8-μm particle size; Waters) at 40 °C. The mobile phase consisted of solution A (0.1% formic acid, v/v) and solution B (acetonitrile) with a gradient of solution B (0.1%, 0 min; 99%, 24 min; v/v) at a flow rate of 0.4 mL/min. The analysis of the mass spectrometer fit with an electrospray ionization probe with sensitivity mode was performed for both the positive and negative ion mode. The resolution of the mass spectrometer was set at >20,000. For MS^E experiments, two acquisition functions with different collision energies were created: a low-energy function with a collision energy of 6 eV and a high-energy function with collision energy ranging from 15 to 40 eV.
# T4 sequence (Q7Z2W7 whole entry): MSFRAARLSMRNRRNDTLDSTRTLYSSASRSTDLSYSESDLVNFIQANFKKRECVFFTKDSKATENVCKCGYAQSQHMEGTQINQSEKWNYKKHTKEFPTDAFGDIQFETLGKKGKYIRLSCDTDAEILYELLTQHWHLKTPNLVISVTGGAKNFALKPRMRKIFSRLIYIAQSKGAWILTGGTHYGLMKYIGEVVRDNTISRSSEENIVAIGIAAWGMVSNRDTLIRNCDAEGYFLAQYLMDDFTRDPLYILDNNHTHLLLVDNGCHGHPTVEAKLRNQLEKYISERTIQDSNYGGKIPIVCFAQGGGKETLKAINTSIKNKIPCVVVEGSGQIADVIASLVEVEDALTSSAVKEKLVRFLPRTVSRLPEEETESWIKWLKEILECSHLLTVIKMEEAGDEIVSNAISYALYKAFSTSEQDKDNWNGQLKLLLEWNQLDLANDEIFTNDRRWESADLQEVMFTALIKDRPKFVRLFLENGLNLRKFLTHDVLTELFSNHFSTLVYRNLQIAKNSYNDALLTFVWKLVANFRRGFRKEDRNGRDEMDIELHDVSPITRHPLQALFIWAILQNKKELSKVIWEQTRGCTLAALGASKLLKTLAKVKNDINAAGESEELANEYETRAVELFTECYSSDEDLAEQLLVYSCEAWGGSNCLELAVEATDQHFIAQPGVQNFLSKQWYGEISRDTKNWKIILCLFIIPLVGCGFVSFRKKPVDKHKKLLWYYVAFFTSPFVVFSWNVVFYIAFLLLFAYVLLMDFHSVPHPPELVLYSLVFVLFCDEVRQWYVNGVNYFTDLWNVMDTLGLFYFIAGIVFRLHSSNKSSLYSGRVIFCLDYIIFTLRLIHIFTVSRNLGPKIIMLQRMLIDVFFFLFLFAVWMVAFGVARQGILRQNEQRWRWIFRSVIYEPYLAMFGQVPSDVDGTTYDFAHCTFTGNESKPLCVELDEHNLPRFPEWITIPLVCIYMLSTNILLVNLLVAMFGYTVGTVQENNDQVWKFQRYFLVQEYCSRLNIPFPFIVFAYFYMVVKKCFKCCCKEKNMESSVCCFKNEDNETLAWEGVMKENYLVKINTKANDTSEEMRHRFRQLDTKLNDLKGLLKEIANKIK
# T2 sequence (Q8NER1 whole entry): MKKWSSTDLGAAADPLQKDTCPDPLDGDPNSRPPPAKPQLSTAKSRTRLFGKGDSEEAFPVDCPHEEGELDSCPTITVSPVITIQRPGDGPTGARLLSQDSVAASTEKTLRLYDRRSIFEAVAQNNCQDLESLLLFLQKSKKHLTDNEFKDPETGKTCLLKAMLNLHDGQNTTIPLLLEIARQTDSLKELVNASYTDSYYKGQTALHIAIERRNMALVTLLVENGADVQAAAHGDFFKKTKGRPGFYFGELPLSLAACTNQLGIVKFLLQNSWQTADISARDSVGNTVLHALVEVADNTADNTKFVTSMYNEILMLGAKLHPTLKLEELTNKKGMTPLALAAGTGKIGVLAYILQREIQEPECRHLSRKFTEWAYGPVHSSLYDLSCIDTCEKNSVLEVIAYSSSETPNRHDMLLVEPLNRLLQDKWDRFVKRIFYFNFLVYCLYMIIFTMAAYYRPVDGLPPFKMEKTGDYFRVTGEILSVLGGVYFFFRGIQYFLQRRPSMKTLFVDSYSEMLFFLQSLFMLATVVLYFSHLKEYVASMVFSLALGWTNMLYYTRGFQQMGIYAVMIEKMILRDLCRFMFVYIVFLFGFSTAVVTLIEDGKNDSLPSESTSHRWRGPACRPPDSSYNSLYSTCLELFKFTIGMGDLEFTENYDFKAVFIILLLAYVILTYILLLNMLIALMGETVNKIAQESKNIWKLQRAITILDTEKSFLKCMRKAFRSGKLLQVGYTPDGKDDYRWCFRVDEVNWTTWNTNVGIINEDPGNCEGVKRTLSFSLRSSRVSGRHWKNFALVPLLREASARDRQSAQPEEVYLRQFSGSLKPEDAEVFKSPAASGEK
# T3 sequence (Q9HBA0 whole entry): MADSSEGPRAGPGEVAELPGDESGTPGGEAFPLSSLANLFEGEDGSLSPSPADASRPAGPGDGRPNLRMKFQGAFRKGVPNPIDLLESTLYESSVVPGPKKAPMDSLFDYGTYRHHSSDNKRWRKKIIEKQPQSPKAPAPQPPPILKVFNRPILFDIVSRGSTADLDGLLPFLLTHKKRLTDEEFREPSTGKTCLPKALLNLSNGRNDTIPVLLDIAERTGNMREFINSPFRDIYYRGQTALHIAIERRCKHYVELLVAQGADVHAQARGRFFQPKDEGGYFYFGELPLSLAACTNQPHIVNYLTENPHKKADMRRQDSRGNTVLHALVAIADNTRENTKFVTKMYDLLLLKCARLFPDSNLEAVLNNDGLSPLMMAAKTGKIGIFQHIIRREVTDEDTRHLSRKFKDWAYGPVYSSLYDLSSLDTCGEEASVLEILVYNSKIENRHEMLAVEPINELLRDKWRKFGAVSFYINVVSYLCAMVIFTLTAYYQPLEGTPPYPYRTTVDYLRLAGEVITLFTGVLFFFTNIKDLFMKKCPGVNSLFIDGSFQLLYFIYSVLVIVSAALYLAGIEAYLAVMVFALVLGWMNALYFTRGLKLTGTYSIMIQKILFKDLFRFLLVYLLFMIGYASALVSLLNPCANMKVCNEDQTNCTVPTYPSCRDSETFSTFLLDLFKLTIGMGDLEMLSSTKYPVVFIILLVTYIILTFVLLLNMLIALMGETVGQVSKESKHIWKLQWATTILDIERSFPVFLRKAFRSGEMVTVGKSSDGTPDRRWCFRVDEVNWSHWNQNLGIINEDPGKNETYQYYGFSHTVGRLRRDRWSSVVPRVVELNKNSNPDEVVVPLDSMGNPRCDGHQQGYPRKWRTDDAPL
# T1 sequence (O75762 whole entry): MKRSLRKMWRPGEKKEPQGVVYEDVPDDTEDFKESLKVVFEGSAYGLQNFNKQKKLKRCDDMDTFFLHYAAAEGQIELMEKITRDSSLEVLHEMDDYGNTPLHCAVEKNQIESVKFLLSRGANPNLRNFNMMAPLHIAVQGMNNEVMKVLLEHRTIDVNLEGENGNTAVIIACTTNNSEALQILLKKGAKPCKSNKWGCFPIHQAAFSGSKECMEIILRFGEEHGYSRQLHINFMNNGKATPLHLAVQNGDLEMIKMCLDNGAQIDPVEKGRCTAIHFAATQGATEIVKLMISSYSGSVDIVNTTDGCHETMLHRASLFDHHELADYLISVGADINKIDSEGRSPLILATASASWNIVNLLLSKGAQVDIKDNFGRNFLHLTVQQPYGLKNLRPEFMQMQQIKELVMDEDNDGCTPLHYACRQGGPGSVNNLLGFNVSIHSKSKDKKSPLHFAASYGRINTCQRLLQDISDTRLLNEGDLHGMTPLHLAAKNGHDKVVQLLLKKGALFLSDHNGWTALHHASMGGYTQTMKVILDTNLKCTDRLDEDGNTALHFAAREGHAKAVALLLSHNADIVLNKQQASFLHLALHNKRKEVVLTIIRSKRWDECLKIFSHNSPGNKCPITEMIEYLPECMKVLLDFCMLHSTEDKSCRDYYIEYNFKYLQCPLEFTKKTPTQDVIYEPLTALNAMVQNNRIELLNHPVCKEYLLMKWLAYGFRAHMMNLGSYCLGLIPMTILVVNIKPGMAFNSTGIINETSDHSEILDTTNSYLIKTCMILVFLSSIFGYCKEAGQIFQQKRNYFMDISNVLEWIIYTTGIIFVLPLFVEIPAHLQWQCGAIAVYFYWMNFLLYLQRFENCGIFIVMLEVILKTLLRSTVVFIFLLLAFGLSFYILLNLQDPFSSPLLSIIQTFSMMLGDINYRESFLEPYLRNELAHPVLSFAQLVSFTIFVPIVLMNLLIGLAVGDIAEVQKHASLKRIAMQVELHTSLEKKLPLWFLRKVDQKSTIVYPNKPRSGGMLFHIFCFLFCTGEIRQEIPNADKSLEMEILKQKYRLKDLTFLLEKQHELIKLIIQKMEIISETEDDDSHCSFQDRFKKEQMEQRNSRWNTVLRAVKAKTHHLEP
compound,measurement,setting,value
O=C(O)CNC(=O)c1ccccc1 [Hippuric acid],activation at 10 µM,human TRPA1,13%
same,activation at 10 µM,human TRPV1,1%
same,activation at 10 µM,human TRPV4,2.8%
same,activation at 10 µM,human TRPM8,7.5%
C=C1[C@H]2C[C@@H]3[C@H]4N5C[C@@]6(C)[C@H]7[C@@H]5C[C@]3([C@@H]1O)[C@@](O)(C2)[C@]74C[C@@H](OC(=O)c1ccccc1)[C@@H]6O [Ignavine],% of Activation Compared to Positive Control against Each Subfamily of TRP Channel TRPA1,human TRPA1,2%
same,% of Activation Compared to Positive Control against Each Subfamily of TRP Channel TRPV1,human TRPV1,−0.2%
same,% of Activation Compared to Positive Control against Each Subfamily of TRP Channel TRPV4,human TRPV4,−0.1%
same,% of Activation Compared to Positive Control against Each Subfamily of TRP Channel TRPM8,human TRPM8,1.8%
O=c1cc(-c2ccc(O)cc2)oc2cc(O)c([C@@H]3O[C@H](CO)[C@@H](O)[C@H](O)[C@H]3O)c(O)c12 [Isovitexin],activation at 10 µM,human TRPA1,18%
same,activation at 10 µM,human TRPV1,0.2%
same,activation at 10 µM,human TRPV4,2.3%
same,activation at 10 µM,human TRPM8,4.3%
CC(C(O)c1ccccc1)[N+](C)(C)[O-] (stereo not drawn) [Methylephedrine N-oxide],% of Activation Compared to Positive Control against Each Subfamily of TRP Channel TRPA1,human TRPA1,21%
same,% of Activation Compared to Positive Control against Each Subfamily of TRP Channel TRPV1,human TRPV1,0.3%
same,% of Activation Compared to Positive Control against Each Subfamily of TRP Channel TRPV4,human TRPV4,1.8%
same,% of Activation Compared to Positive Control against Each Subfamily of TRP Channel TRPM8,human TRPM8,4.5%
"CN[C@@H](C)[C@@H](O)c1ccccc1 [Pseudoephedrine, (S,S)-(+)-pseudoephedrine, reference compound]",activation at 10 µM,human TRPA1,4%
same,activation at 10 µM,human TRPV1,-0.2%
same,activation at 10 µM,human TRPV4,-0.3%
same,activation at 10 µM,human TRPM8,2.8%
C/C=C/C=C\CC/C=C/C(=O)NCC(C)C [Spilanthol],Detection in plasma of rats treated with AR or MBST (non-targeted analysis),[1],not detected
O=c1cc(-c2ccc(O)cc2)oc2c([C@@H]3O[C@H](CO)[C@@H](O)[C@H](O)[C@H]3O)c(O)c([C@@H]3O[C@H](CO)[C@@H](O)[C@H](O)[C@H]3O)c(O)c12 [Vicenin-2],% of Activation Compared to Positive Control against Each Subfamily of TRP Channel TRPA1,human TRPA1,25%
same,% of Activation Compared to Positive Control against Each Subfamily of TRP Channel TRPV1,human TRPV1,1.8%
same,% of Activation Compared to Positive Control against Each Subfamily of TRP Channel TRPV4,human TRPV4,5.0%
same,% of Activation Compared to Positive Control against Each Subfamily of TRP Channel TRPM8,human TRPM8,6.5%
"(1R,2S)-(−)-N-methylephedrine [reference compound]",% of Activation Compared to Positive Control against Each Subfamily of TRP Channel TRPA1,human TRPA1,3%
same,% of Activation Compared to Positive Control against Each Subfamily of TRP Channel TRPV1,human TRPV1,−0.4%
same,% of Activation Compared to Positive Control against Each Subfamily of TRP Channel TRPV4,human TRPV4,−0.1%
same,% of Activation Compared to Positive Control against Each Subfamily of TRP Channel TRPM8,human TRPM8,3.6%
Neoline,% of Activation Compared to Positive Control against Each Subfamily of TRP Channel TRPA1,human TRPA1,5%
same,% of Activation Compared to Positive Control against Each Subfamily of TRP Channel TRPV1,human TRPV1,−0.4%
same,% of Activation Compared to Positive Control against Each Subfamily of TRP Channel TRPV4,human TRPV4,0.5%
same,% of Activation Compared to Positive Control against Each Subfamily of TRP Channel TRPM8,human TRPM8,5.0%
